Results from PubChem BioAssay AID602378 (Sanford-Burnham Center for Chemical Genomics, 2012).
pIC50: −log10 of the molar value. Activity calls are given as the source filed them. How the calls were made is not given here.

Test system: S. cerevisiae tim10-1 mutant yeast, luminescence growth read-out
Test: growth inhibition of tim10-1 mutant yeast, SAR follow-up, counter-screen for tim23-1 inhibitor project, luminescence, S. cerevisiae (AID 602378)

SMILES | pIC50 | IC50
N/C(Cc1cccc2ccccc12)=N\OC(=O)COc1ccc(Cl)cc1Cl | 4.55 | –
CC(C)Cn1cnc2c(c(-c3ccccc3)c(-c3ccccc3)n2Cc2ccco2)c1=N | 4.77 | –
Cc1nc2scc(C)n2c(=O)c1S(=O)(=O)Nc1cc(C(F)(F)F)ccc1Cl | – | > 99 µM (inactive)
Oc1ccc(Oc2ccc(Oc3ccc(O)cc3)cc2)cc1 | 4.59 | –
N/C(=N\OC(=O)c1cccc2ccccc12)c1ccc(Cl)cc1 | 5.99 | –
O=C1OC(c2ccccc2)=N/C1=C\C=C\c1ccco1 | 5.44 | –
N/C(=N\OC(=O)c1ccc(Cl)cc1)c1ccc(Cl)cc1 | 5.96 | –
N#Cc1c(-c2ccccc2)cc(-c2ccc(O)cc2)nc1N | 4.99 | –
Cc1nc2scc(C)n2c(=O)c1S(=O)(=O)Nc1ccc(N2CCN(C(=O)C(C)C)CC2)cc1 | – | > 99 µM (inactive)
Cc1ccc(Nc2nc(-c3cccnc3)nc3ccccc23)cc1 | 4.85 | –
COc1ccc(Cl)cc1NS(=O)(=O)c1c(C)nc2scc(C)n2c1=O | – | > 99 µM (inactive)
Cc1nc2scc(C)n2c(=O)c1S(=O)(=O)Nc1ccccc1 | 4.17 | –
Nc1cccc(Oc2ccc(Oc3cccc(N)c3)cc2)c1 | – | > 99 µM (inactive)
COc1ccc(/C=C/C(=O)Nc2ccc3c(c2)CCC3)cc1OC | 4.76 | –
CC(=O)c1ccc(NS(=O)(=O)c2c(C)nc3scc(C)n3c2=O)cc1 | – | > 99 µM (inactive)
CN1CCc2nc3sc(C(=O)C45CC6CC(CC(C6)C4)C5)c(N)c3cc2C1 | 4.16 | –
Cc1ccc2nc(CS(=O)(=O)c3ncccc3Cl)cc(=O)n2c1 | – | > 99 µM (inactive)
O=C(Nc1ccc(-c2cn3ccccc3n2)cc1)c1cccs1 | – | > 99 µM (inactive)
CC(C)(C)c1csc(NC(=O)c2ccc(Cl)s2)n1 | 4.26 | –
O=C(CSc1cccc[n+]1[O-])Nc1ccccc1Oc1ccccc1 | 6.02 | –

SMILES | pIC50 | IC50
C=C1CCc2c([nH]c3ccc(OCC(C)C)cc23)C1=O | – | > 99 µM (inactive)
O=C(CSCc1ccccc1)Nc1cc(S(=O)(=O)N2CCOCC2)ccc1Oc1ccccc1 | – | > 99 µM (inactive)
Cc1c2c(n(Cc3ccco3)c1C)N=CN1CCS(=O)(=O)N=C21 | – | > 99 µM (inactive)
CCN(C(=O)c1cccc2ncccc12)c1c(N)n(Cc2ccccc2)c(=O)[nH]c1=O | – | > 99 µM (inactive)
Cc1ccc2nc(CSc3ccc(S(=O)(=O)N4CCCC4)cn3)cc(=O)n2c1 | – | > 99 µM (inactive)
CS(=O)(=O)Nc1ccc(/C(N)=N/OC(=O)c2ccccc2Cl)cc1 | – | > 99 µM (inactive)
Cc1ccc(-c2nc3ccc(NC(=O)c4cccs4)cc3[nH]2)o1 | 4.79 | –
N/C(=N\OC(=O)c1ccc(Cl)cc1)c1cccc(CS(=O)(=O)c2ccccn2)c1 | 4.85 | –
O=C(Nc1ccc2nc(-c3ccc(Br)o3)[nH]c2c1)c1cccs1 | 4.61 | –
CC1(C)C=Cc2cc(/C(N)=N/OC(=O)c3ccccc3)ccc2O1 | 6.18 | –
Cc1nc2scc(C)n2c(=O)c1S(=O)(=O)Nc1ccc(N2CCOCC2)cc1 | – | > 99 µM (inactive)
O=c1cc(CSc2ccc(S(=O)(=O)N3CCOCC3)cn2)nc2ccc(Br)cn12 | 4.11 | –
O=C(Nc1nc2ccccc2s1)C1CCCN1S(=O)(=O)c1ccc(Cl)cc1 (stereo not given) | 4.88 | –
Cc1nc2scc(C)n2c(=O)c1S(=O)(=O)Nc1ccc(N2CCOCC2)c(Cl)c1 | – | > 99 µM (inactive)
Cc1noc(C)c1S(=O)(=O)Nc1ccc(-c2cn3c(n2)SCC3)cc1 | – | > 99 µM (inactive)
NC(=O)C1CCN(c2nc(-c3cccnc3)nc3ccccc23)CC1 | – | > 99 µM (inactive)
Cc1nc2scc(C)n2c(=O)c1S(=O)(=O)Nc1cccc(O)c1 | – | > 99 µM (inactive)
COc1cc2c(cc1OC)/C(=C/c1ccc(Cl)cc1)C(=O)OC2 | 4.97 | –
O=C(N/N=C/C(Cl)=C\c1ccccc1)c1cccs1 | 4.37 | –
Cc1csc(NC(=O)c2sc3nc4c(cc3c2N)CN(C)CC4)n1 | – | > 99 µM (inactive)

SMILES | pIC50 | IC50
CCOc1ccc(NS(=O)(=O)c2c(C)nc3scc(C)n3c2=O)cc1 | – | > 99 µM (inactive)
CC(=O)c1ccc2[nH]c3c(c2c1)CCCC3=O | – | > 99 µM (inactive)
O=C(Nc1ccn[nH]1)c1cccc(OCc2cccnc2)c1 | – | > 99 µM (inactive)
Cc1nc2scc(C)n2c(=O)c1S(=O)(=O)Nc1ccc(N2CCN(S(C)(=O)=O)CC2)cc1 | – | > 99 µM (inactive)
Cc1ccc(-c2nn(-c3ccccc3)cc2NC(=O)CCl)cc1 | 5.73 | –
Cc1ccc2nc(N3C(=O)CNC3=S)sc2c1 | 4.89 | –
Cc1ccc(OCC(=O)O/N=C(\N)Cc2ccc(Cl)cc2)cc1 | 5.59 | –
Cc1nc2scc(C)n2c(=O)c1S(=O)(=O)Nc1ccc(OC(F)(F)F)cc1 | 4.58 | –
Cc1nc2scc(C)n2c(=O)c1S(=O)(=O)Nc1ccc(Oc2ccc(Cl)cc2)cc1 | – | > 99 µM (inactive)
CCOc1ccc2nc(N3C(=O)CNC3=S)sc2c1 | – | > 99 µM (inactive)
Cc1cc(OCC(=O)O/N=C(\N)Cc2ccc(Cl)cc2)ccc1Br | 5.48 | –
Cc1nn(Cc2cccc(C(=O)O/N=C(\N)c3ccc(Cl)cc3)c2)c(C)c1Br | 5.82 | –
Cc1ccc(/C(N)=N/OC(=O)c2ccccc2)cc1F | 5.95 | –
N#C/C(=C\c1ccc(Cl)cc1)C(=O)Nc1cccnc1 | 4.59 | –
CCCN(C(=O)c1ccc([N+](=O)[O-])c(C)c1)c1c(N)n(Cc2ccccc2)c(=O)[nH]c1=O | 5.97 | –
N/C(=N\OC(=O)c1ccc2ccccc2c1)c1ccc(I)cc1 | – | > 99 µM (inactive)
CCOc1cc2ccccc2cc1C(=O)O/N=C(\N)c1ccc(Cl)cc1 | 5.79 | –
O=c1cc(CSc2ccc(S(=O)(=O)N3CCCCC3)cn2)nc2ccc(Br)cn12 | – | > 99 µM (inactive)
CCCCOc1ccc(C(=O)O/N=C(\N)c2cccc(Br)c2)cc1 | 5.96 | –
N/C(=N\OC(=O)c1ccccc1)c1ccc(F)cc1F | 5.17 | –
